The values below come from US20210213010A1, “TLR7/8 AGONISTS AND LIPOSOME COMPOSITIONS” (Torque Therapeutics, Inc., priority 2018, published 2021).

Data set [1] can be described thus: Remote loading efficiency of small molecules into liposomes (PD-10 size exclusion, HPLC). Format: physicochemical. On the procedure: A solution of the small molecule (modified TLR agonist) was lyophilized in a vial equipped with a magnetic stir bar over night to form a fluffy white powder. This powder was added either formulation F1 or F2 to the wanted drug/lipid ratio. The resulting mixture was stirred at 55° C. or 41° C. for formulation F1 and F2 respectively for 3h, then allowed to cool to rt before the solutions were refrigerated and stored at 4° C.
Remote loading efficiency was determined at 1 h and 3 h by taking out 100 μL of the mixture and applying this and 900 μL buffer (25 mM HEPES, 10 vol % sucrose buffer, pH 7.4) to a PD-10 column size exclusion column. Following, 10×1 mL fractions were collected, and the small molecule compound concentrations in the loading mixture and in the liposome containing fractions were determined on analytical HPLC. Loading efficiency was calculated as percentage of molecules found in liposome containing fractions out of the applied amount. The general procedure for the small molecule remote loading is visualized in FIG. 3. The general concept of remote loading imidazoquinolines in liposomes that are dialyzed against HEPES is visualized in FIG. 4.
A general note: Size exclusion chromatography separates by hydrodynamic size, large species first.

The test system of data set [2] is whole human blood. The data set can be described thus: IL-6 cytokine expression in stimulated whole human blood (ELISA). Format: cell-based. How it is done: (§1) This example describes the general procedure used to assess the level of cytokine IL-6 and IL-12p40 expressions upon stimuli of whole human blood with small molecules or small molecules in liposomal formulations F1 and F2. 10 mM DMSO solutions of the small molecules were diluted in RPMI media (RPMI-1640, Sigma Aldrich) with 1% penicillin/streptomycin (p/s). […], of each dilution was transferred to Nunc™ 96-Well Polystyrene Conical Bottom MicroWell™ Plates in duplicates. Blood was drawn from two human donors, diluted in RPMI with 1% p/s and added to each well to reach final concentrations of 10 μM, 1 μM, and 0.1 μM of the small molecules. The plates were incubated at 37° C. in a cell incubator for 24h. The plates were then spun down in a plate centrifuge with 3200 revolutions per minute (rpm) for 10 min before 50 uL of the supernatant was transferred to new 96-well plates. The supernatant samples were subsequently stored at −80° C. until the day of cytokine measurements.
(§2) The level of cytokine expression was measured using either an IL-6 ELISA Kit (RnDSystems, cat #DY206) for IL-6, or an IL-12p40 ELISA Kit (RnDSystems, cat #DY1240) according to the manufacturer's protocols. This general procedure was used to generate the examples 24-33.
In general terms: An ELISA detects its analyte on a solid surface through an enzyme-linked reagent.

Data set [3] deals with whole human blood. The data set can be described thus: IL-12p40 cytokine expression in stimulated whole human blood (ELISA). The format is cell-based. On the procedure: as §1, §2
In a further data set the test system is RAW-Blue cells. As to the kind of experiment: NF-κB induction in RAW-Blue reporter cells (RAW 264.7 macrophages, SEAP). The format is cell-based. The following applies: for EC50: RAW-Blue, sigmoidal 4PL fitting, 24 h. An excerpt:
This example describes the general procedure used to assess the compounds' potency to induce NF-κB expression in RAW 264.7 macrophages cells that stably express secreted embryonic alkaline phosphatase (SEAP) upon induction of NF-κB. RAW-Blue™ reporter cells are commonly used for quantifying TLR7/8 agonist potencies in reporter cell assays. Conversely, we used RAW-Blue™ cells to evaluate the potencies of the synthesized derivatives, as previously reported^1. ^1 Ryu et al, J. Am. Chem. Soc. (2014), 136, 10823-10825
RAW 264.7 assays were carried out using RAW-Blue™ cells and QUANTI-Blue™ detection solution (Invivogen, Toulouse, France, at. #raw-sp and rep-qbs respectively). The assays carried out according to the protocol from Invivogen. RAW 264.7 macrophages were cultured in DMEM high glucose (4.5 g/L) supplemented with 10% (v/v) FBS, 1% (v/v) P/S, and Normocin™ (100 μg/ml). On the day of the study, the cells were seeded in a 96-well plate (ThermoFisher Scientific, Roskilde, Denmark) with 20 μL TLR7/8 agonist solutions per well at varying concentrations by adding 180 μL cell suspension, made by suspending cells to 0.55×10^6 cells per mL in the prepared cell medium added Zeocin™ (200 μg/ml), leading to a final concentration of 100×10^3 cells per well in triplicates. Cells were incubated with the TLR7/8 agonists, diluted from 10 mM DMSO stocks in PBS, at 37° C. with 5% CO2 for 24 h for SEAP production. 50 μL SEAP containing cell supernatant from each well was added 150 μL QUANTI-Blue™ detection solution and was incubated at 37° C. for 3-6 h. The resulting response was quantified spectrophotometrically at 640 nm and was normalized to the signal from a blank sample (DMSO dilution) run in parallel.
Half maximal effective concentration (EC50) values were determined from sigmoidal 4PL fittings from the resulting dose-response curves in GraphPad Prism.

Where [4] appears, read: formulation F1, HEPES, drug/lipid ratio 0.10, 1 h.
Where [5] appears, read: formulation F1, HEPES, drug/lipid ratio 0.10, 3 h.
Setting [6] is: formulation F2, HEPES, drug/lipid ratio 0.10, 1 h.
Where [7] appears, read: formulation F2, HEPES, drug/lipid ratio 0.10, 3 h.
Setting [8] is: free small molecule, 10, 1, 0.1 μM, 24 h, two donors.
Where [9] appears, read: remote loaded in formulation F1, HEPES, drug/lipid ratio 0.1.
[10] abbreviates: remote loaded in formulation F2, HEPES, drug/lipid ratio 0.1.

Entries after “also recorded” stand apart in the source; their conditions may differ.

With `CCOCc1nc2c(N)nc3ccccc3c2n1CCNC(=O)[C@H](C)N` [MK088, (S)-2-amino-N-(2-(4-amino-2-(ethoxymethyl)-1H-imidazo[4,5-c]quinolin-1-yl)ethyl)propanamide], the “Remote loading efficiency 1 h (%)” value in data set [1] (setting [4]) is reported as 110%; in data set [1] (setting [6]), 95%. The results for the “Remote loading efficiency 3 h (%)” value in data set [1] (setting [5]) and in data set [1] (setting [7]) were 115% and 95%, respectively. The entries for the “Expression of IL-6 upon stimulation of whole human blood” value in the data set with whole human blood [2] (setting [8]), in the data set with whole human blood [2] (setting [9]) and in the data set with whole human blood [2] (setting [10]) were “induced expression of IL-6 at 10 μM in donor 2”, “capable of inducing expression of IL-6 at 10 μM” and “capable of inducing expression of IL-6 at 10 μM; also recorded: not capable of inducing expression of IL-6 in donor 1”, respectively. Also, the “Expression of IL-12p40 upon stimulation of whole human blood” value is “induced expression of IL-12p40 at 10 μM in donor 2; also recorded: the most potent inducer of IL-12p40” with whole human blood [3] (setting [8]); “none of the small molecules Gardiquimod, MK087, MK088, and MK089 were capable of inducing expression of IL-12p40” with whole human blood [3] (setting [9]); “capable of inducing expression of IL-12p40 in one donor at 10 μM” in the data set on whole human blood [3] (setting [10]).
A word on the EC50: it is the concentration at which the effect is half-maximal. The compound `CCCCc1nc2c(N)nc3ccccc3c2n1Cc1ccc(CNC(=O)CC)cc1` [MK148, N-(4-((4-amino-2-butyl-1H-imidazo[4,5-c]quinolin-1-yl)methyl)benzyl)propionamide] yielded an EC50 with RAW-Blue cells of 50 nM. Moreover, the “Potency in the RAW-Blue cell assay” value in the data set with RAW-Blue cells (compared with R848) is on record as “greater potencies than R848”.
`CCOCc1nc2c(N)nc3ccccc3c2n1CCNC(=O)[C@@H](N)C(C)C` [MK089, (S)-2-amino-N-(2-(4-amino-2-(ethoxymethyl)-1H-imidazo[4,5-c]quinolin-1-yl)ethyl)-3-methylbutanamide]: the “Remote loading efficiency 1 h (%)” value in data set [1] (setting [4]) is listed as 122%; in data set [1] (setting [6]), 100%. Also, the “Remote loading efficiency 3 h (%)” value in data set [1] (setting [5]) is recorded as 128%; in data set [1] (setting [7]), 104%. Further, the “Expression of IL-6 upon stimulation of whole human blood” value is on record as “induced expression of IL-6 at 10 μM in donor 2” in the data set with whole human blood [2] (setting [8]), “No induction of IL-6 expression” with whole human blood [2] (setting [9]) and “capable of inducing expression of IL-6 at 10 μM; also recorded: capable of inducing expression of IL-6 in both donors” in the data set on whole human blood [2] (setting [10]). The “Expression of IL-12p40 upon stimulation of whole human blood” value was “none of the small molecules Gardiquimod, MK087, MK088, and MK089 were capable of inducing expression of IL-12p40” with whole human blood [3] (setting [9]); “capable of inducing expression of IL-12p40 in one donor at 10 μM” with whole human blood [3] (setting [10]).
Turning to `CCCCc1nc2c(N)nc3ccccc3c2n1Cc1ccc(CNC(=O)[C@@H](N)Cc2ccc(O)cc2)cc1` [MK141, (S)-2-amino-N-(4-((4-amino-2-butyl-1H-imidazo[4,5-c]quinolin-1-yl)methyl)benzyl)-3-(4-hydroxyphenyl)propanamide], in data set [1] (formulation F3, drug/lipid ratio 0.10, 1 h, mean (SD), n = 2), the “Remote loading efficiency 1 h (%)” value is recorded as 83.8 (3.0) %. In data set [1] (formulation F3, drug/lipid ratio 0.10, 3 h, mean (SD), n = 2), the “Remote loading efficiency 3 h (%)” value is listed as 81.2 (2.1) %. In the data set with RAW-Blue cells, this compound registered an EC50 of 130 nM.
As to `CCOCc1nc2c(N)nc3ccccc3c2n1CCNC(=O)CN` [MK087, 2-amino-N-(2-(4-amino-2-(ethoxymethyl)-1H-imidazo[4,5-c]quinolin-1-yl)ethyl)acetamide], the figures for the “Remote loading efficiency 1 h (%)” value in data set [1] (setting [4]) and in data set [1] (setting [6]) were 72% and 52%, respectively. Moreover, the “Remote loading efficiency 3 h (%)” value was determined as 73% in data set [1] (setting [5]) and 60% in data set [1] (setting [7]). Besides, the entries for the “Expression of IL-6 upon stimulation of whole human blood” value in the data set on whole human blood [2] (setting [9]) and in the data set on whole human blood [2] (setting [10]) were “capable of inducing expression of IL-6 at 10 μM” and “capable of inducing expression of IL-6 at 10 μM; also recorded: not capable of inducing expression of IL-6 in donor 1”, respectively. For the same compound, the “Expression of IL-12p40 upon stimulation of whole human blood” value in the data set with whole human blood [3] (setting [9]) was “none of the small molecules Gardiquimod, MK087, MK088, and MK089 were capable of inducing expression of IL-12p40”; with whole human blood [3] (setting [10]), “not capable of inducing expression of IL-12p40”.
`CCOCc1nc2c(N)nc3ccccc3c2n1CCNC(=O)C(C)(C)N` [MK090, 2-amino-N-(2-(4-amino-2-(ethoxymethyl)-1H-imidazo[4,5-c]quinolin-1-yl)ethyl)-2-methylpropanamide]: the “Expression of IL-6 upon stimulation of whole human blood” value with whole human blood [2] (setting [8]) is reported as “induced expression of IL-6 at 10 μM in donor 2; also recorded: able to induce expression of IL-6 in both donors; also recorded: the most potent inducer of IL-6”. The “Expression of IL-12p40 upon stimulation of whole human blood” value with whole human blood [3] (setting [8]) is “induced expression of IL-12p40 at 10 μM in donor 2”.
In the case of `CCCCc1nc2c(N)nc3ccccc3c2n1Cc1ccc(CNC(C)=O)cc1` [MK132, N-(4-((4-amino-2-butyl-1H-imidazo[4,5-c]quinolin-1-yl)methyl)benzyl)acetamide], in the data set on RAW-Blue cells, the EC50 was 120 nM.
Regarding `CCOCc1nc2c(N)nc3ccccc3c2n1CCNC(=O)[C@@H](N)CCSC` [MK093, (S)-2-amino-N-(2-(4-amino-2-(ethoxymethyl)-1H-imidazo[4,5-c]quinolin-1-yl)ethyl)-4-(methylthio)butanamide], the “Expression of IL-6 upon stimulation of whole human blood” value in the data set with whole human blood [2] (setting [8]) is “induced expression of IL-6 at 10 μM in donor 2”. Also, the “Expression of IL-12p40 upon stimulation of whole human blood” value in the data set with whole human blood [3] (setting [8]) is reported as “induced expression of IL-12p40 at 10 μM in donor 2”.
Turning to `CCOCc1nc2c(N)nc3ccccc3c2n1CCNC(=O)[C@@H](N)CC(C)C` [MK091, (S)-2-amino-N-(2-(4-amino-2-(ethoxymethyl)-1H-imidazo[4,5-c]quinolin-1-yl)ethyl)-4-methylpentanamide], the “Expression of IL-6 upon stimulation of whole human blood” value in the data set with whole human blood [2] (setting [8]) is listed as “induced expression of IL-6 at 10 μM in donor 2”. Also, in the data set with whole human blood [3] (setting [8]), the “Expression of IL-12p40 upon stimulation of whole human blood” value is listed as “induced expression of IL-12p40 at 10 μM in donor 2”.
